The source made the active and inactive calls.
Legend:
BJ [1] = experiment: cells; assay type: functional, cell-based; conditions: Homo sapiens
BJ [2] = experiment: BJ-TERT fibroblast viability loss – cell-based, RAS-independent, luminescence, dose response (AID 1933); assay type: functional; conditions: Homo sapiens
[3] = Luminescence Cell-Based Dose Response HTS to Identify Inhibitors of 5'UTR Stem-Loop Driven Prion Protein mRNA Translation in H4 Neuroglioblastoma Cells. [Related pubchem assays: 1827 (Project Summary), 1813 (Primary HTS)]; assay type: functional
[4] = luciferase reporter signal suppression in cells – H4 neuroglioma cells, luminescence, dose response (AID 1990); assay type: functional, cell-based
[5] = alpha-synuclein stem-loop luciferase translation blockers – H4 neuroglioma cells, luminescence, confirmation (AID 1988); assay type: functional, cell-based
[6] = DRD fibroblast viability loss – cell-based, non-viral oncogenic, luminescence, dose response (AID 1934); assay type: functional; conditions: Homo sapiens
BJ [7] = experiment: BJ-TERT-LT-ST fibroblast viability loss – cell-based, RAS-independent, luminescence, dose response (AID 1935); assay type: functional; conditions: Homo sapiens;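 also: BJ fibroblasts immortalized with TERT plus LT and ST oncogenes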
Cytochrome P450 3A4 = Cytochrome P450 3A4 (Homo sapiens, UniProt P08684);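 also: CYP3A4 tested as one member of a cytochrome P450 panel screen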
Chain of Cytochrome P450 3A4 (P08684 whole entry): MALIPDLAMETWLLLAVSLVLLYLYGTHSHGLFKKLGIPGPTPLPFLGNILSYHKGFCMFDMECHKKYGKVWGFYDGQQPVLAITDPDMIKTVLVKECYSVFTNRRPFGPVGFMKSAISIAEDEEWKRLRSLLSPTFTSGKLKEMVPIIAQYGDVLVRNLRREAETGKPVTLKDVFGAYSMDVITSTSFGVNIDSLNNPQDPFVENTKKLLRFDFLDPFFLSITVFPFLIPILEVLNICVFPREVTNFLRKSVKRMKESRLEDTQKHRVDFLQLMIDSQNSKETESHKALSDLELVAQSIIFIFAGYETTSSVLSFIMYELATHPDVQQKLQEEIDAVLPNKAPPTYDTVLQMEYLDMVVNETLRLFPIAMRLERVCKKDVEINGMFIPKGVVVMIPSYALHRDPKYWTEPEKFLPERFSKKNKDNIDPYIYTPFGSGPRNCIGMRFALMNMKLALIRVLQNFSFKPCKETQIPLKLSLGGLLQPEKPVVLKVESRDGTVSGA

[8] = target: T1, Polyadenylate-binding protein 1 (Homo sapiens, UniProt P11940); experiment: MLLE binding blockers, Cy5 peptide tracer – biochemical, fluorescence polarization, Cy5-PAM2 peptide, secondary, miRNA deadenylation inhibitor project, dose response (AID 602260); assay type: functional; conditions: read-out: IC50_Mean
T1 sequence (P11940 whole entry): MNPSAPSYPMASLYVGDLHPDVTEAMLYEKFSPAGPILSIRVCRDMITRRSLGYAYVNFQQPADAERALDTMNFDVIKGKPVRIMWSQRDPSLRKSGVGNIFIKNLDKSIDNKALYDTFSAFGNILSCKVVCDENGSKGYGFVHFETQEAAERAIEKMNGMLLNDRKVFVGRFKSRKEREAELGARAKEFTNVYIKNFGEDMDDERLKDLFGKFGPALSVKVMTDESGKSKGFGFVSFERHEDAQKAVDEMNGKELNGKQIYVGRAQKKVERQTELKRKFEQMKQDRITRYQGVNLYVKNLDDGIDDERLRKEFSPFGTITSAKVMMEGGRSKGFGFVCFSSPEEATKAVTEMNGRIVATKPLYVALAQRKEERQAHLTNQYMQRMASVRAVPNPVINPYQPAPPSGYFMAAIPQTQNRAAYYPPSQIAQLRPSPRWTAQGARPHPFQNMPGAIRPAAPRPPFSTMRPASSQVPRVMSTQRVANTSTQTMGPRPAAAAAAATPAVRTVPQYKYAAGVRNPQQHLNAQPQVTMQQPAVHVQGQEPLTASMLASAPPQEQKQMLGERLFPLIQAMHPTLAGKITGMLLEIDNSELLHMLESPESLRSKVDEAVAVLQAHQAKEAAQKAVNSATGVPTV

[9] = target: T2, Serine/threonine-protein phosphatase (Candida dubliniensis (strain CD36 / CBS 7987 / NCPF 3949 / NRRLY-17841) (Yeast), UniProt B9W6M3); experiment: blockers of CaCl2-induced CDRE-lacZ signaling – S. cerevisiae, luminescence, secondary, dose response (AID 2388); assay type: functional, cell-based;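 also: yeast reporter cells carrying a calcineurin-responsive lacZ construct stimulated with calcium chloride; luminescent beta-galactosidase reporter signal in whole cells rather than isolated phosphatase activity; potency for inhibition where a drop in reporter signal means calcineurin blockade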
T2 sequence (B9W6M3 whole entry): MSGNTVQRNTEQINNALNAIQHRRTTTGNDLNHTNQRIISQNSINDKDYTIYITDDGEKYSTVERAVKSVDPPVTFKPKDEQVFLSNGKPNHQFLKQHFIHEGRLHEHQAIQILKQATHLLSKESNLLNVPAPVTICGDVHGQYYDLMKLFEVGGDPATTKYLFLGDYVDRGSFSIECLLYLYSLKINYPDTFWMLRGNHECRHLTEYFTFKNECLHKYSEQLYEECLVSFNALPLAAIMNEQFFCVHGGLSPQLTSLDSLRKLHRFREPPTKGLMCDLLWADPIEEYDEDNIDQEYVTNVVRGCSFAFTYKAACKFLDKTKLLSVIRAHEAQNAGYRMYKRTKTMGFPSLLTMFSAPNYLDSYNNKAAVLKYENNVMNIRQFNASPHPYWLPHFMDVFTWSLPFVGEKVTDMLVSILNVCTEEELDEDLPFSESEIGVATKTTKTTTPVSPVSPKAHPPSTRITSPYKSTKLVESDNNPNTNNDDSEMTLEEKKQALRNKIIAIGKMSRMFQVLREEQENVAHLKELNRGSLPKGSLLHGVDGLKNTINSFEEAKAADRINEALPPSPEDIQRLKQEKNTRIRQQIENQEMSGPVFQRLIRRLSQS

[10] = target: T1, Polyadenylate-binding protein 1; experiment: MLLE domain peptide-binding blockers, IC50 – biochemical, fluorescence polarization, FITC-PAM2 peptide, dose response (AID 602259); assay type: functional; conditions: read-out: IC50_Mean
[11] = target: ATP-dependent molecular chaperone HSP82 (Candida albicans (strain WO-1) (Yeast), UniProt C4YTQ8); experiment: steroid-induced GRE reporter decrease in yeast – S. cerevisiae, luminescence, Hsp90 inhibitor project, dose response (AID 2400); assay type: functional, cell-based;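 also: beta-galactosidase luminescence from glucocorticoid response element reporter as proxy for Hsp90 function; inhibitor potency where signal loss means Hsp90 inhibition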
Chain of ATP-dependent molecular chaperone HSP82 (C4YTQ8 whole entry): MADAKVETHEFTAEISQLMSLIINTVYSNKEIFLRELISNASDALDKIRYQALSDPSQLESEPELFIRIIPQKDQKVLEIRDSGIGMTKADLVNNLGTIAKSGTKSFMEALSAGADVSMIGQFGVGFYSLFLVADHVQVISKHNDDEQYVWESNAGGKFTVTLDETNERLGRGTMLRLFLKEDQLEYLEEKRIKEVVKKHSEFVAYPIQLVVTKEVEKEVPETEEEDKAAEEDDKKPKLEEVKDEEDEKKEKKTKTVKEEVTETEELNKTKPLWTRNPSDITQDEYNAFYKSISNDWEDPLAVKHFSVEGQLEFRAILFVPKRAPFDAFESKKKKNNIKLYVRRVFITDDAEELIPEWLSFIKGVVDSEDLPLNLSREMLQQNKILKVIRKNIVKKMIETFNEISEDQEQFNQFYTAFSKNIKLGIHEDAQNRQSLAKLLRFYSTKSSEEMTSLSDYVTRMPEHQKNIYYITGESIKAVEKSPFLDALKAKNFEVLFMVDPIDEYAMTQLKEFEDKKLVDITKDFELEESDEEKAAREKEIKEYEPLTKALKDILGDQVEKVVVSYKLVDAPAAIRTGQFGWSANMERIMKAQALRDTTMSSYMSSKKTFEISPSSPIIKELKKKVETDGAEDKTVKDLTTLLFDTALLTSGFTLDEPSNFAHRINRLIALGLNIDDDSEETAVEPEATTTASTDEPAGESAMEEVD

[12] = fluconazole-exposed Candida albicans growth modulators – fluorescence, retest, confirmation (AID 2467); assay type: functional, cell-based
[13] = NIH-3T3 fibroblast cytotoxicity, dose response, cytotoxicity control, cell-based, fluorescence, Alamar Blue, secondary assay (AID 2327); assay type: functional;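 also: NIH-3T3 mouse fibroblasts cultured with fluconazole at 8 µg/mL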
[14] = target: T3, Corticotropin-releasing factor receptor 2/Corticotropin-releasing factor-binding protein (Homo sapiens, UniProt P24387+Q13324); experiment: Dose Response confirmation of uHTS hits for small molecule antagonists of the CRF-binding protein and CRF-R2 receptor complex.; assay type: functional; conditions: read-out: IC50_Mean
T3 sequence (Q13324 whole entry): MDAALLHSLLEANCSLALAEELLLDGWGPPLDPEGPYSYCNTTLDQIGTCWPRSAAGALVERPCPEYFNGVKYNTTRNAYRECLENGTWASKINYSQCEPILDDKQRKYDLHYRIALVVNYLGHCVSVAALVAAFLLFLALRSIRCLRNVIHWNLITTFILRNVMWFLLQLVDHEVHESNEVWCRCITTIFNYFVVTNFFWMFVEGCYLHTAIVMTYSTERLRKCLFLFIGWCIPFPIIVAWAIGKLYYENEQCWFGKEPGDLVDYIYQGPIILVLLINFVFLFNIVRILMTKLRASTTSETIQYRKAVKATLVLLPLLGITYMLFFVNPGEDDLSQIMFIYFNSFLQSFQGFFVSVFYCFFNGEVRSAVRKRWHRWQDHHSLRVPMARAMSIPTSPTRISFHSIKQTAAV
T3 sequence (P24387 whole entry): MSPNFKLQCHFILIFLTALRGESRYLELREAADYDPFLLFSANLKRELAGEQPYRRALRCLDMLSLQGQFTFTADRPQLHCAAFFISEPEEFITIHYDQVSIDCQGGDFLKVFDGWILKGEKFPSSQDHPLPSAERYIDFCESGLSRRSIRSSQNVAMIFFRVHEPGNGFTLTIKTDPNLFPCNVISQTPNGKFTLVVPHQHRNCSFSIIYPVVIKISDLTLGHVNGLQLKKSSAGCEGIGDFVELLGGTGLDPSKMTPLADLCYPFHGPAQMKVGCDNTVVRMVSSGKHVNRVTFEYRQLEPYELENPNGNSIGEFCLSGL

[15] = target: T3, Corticotropin-releasing factor receptor 2/Corticotropin-releasing factor-binding protein; experiment: activators of CRF receptor 2 with binding protein – uHTS hits, confirmation (AID 602473); assay type: functional; conditions: read-out: EC50_Mean
Vero [16] = experiment: cells; assay type: functional, cell-based; conditions: Chlorocebus sabaeus
[17] = NIH3T3 cell viability loss – ATP luminescence, mouse fibroblasts, counter-screen, dose response (AID 2010); assay type: functional, cell-based;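 also: cells exposed to compound for about 90 hours before reading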
[18] = Trypanosoma cruzi growth suppression in host cells – NIH3T3 host cells, beta-gal luminescence, confirmation (AID 2044); assay type: functional, cell-based;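 also: intracellular parasites grown in NIH/3T3 mouse fibroblasts as host cells; luminescent beta-galactosidase reporter signal from transgenic T. cruzi replicating inside host cells; inhibitors lower the luminescence signal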
Cytochrome P450 2C9 [19] = target: T4, Cytochrome P450 2C9 (Homo sapiens, UniProt P11712)
T4 sequence (P11712 whole entry): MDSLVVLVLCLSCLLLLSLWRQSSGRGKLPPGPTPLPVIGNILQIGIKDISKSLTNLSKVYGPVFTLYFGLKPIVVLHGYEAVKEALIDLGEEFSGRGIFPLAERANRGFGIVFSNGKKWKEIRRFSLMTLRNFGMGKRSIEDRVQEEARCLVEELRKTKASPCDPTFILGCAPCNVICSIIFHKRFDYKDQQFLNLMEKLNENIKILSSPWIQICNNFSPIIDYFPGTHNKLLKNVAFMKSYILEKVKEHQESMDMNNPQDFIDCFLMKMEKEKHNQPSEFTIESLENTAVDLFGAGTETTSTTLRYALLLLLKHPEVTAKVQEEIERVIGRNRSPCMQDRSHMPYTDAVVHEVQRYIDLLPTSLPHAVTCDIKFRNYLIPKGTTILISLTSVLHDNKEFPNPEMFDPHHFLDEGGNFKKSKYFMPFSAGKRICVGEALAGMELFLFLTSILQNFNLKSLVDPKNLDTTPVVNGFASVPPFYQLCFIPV

Cytochrome P450 2D6 = Cytochrome P450 2D6 (Homo sapiens, UniProt P10635);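 also: CYP2D6 member of a cytochrome P450 panel assay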
Chain of Cytochrome P450 2D6 (P10635 whole entry): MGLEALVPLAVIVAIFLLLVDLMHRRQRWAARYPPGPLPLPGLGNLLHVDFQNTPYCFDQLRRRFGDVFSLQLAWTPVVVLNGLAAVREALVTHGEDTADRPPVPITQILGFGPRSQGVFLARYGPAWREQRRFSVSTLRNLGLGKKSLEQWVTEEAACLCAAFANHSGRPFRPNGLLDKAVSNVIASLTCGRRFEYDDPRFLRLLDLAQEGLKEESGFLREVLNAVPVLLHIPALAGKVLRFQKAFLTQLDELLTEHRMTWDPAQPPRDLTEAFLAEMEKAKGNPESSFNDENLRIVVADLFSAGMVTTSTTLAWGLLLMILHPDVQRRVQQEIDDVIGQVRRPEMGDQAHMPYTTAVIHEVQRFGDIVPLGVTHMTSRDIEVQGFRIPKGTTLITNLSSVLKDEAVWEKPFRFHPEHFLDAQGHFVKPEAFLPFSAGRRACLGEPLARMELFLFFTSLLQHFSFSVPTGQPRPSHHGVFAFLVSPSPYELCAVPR

Nonstructural protein 1 = Nonstructural protein 1 (Influenza A virus, UniProt Q194T2); assay type: functional, Influenza A virus (A/California/07/2009(H1N1))
Chain of Nonstructural protein 1 (Q194T2 whole entry): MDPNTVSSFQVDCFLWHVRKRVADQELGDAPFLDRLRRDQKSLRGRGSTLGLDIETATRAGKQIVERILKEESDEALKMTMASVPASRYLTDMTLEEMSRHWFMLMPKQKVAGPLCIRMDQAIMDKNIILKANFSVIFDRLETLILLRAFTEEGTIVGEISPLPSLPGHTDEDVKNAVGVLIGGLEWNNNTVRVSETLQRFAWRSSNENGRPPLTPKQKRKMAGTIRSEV

Cytochrome P450 2C9 [20] = target: T4, Cytochrome P450 2C9; remark: listed apart in the source
Cytochrome P450 2C19 = Cytochrome P450 2C19 (Homo sapiens, UniProt P33261); experiment: Cytochrome panel assay with activity outcomes. Panel member name: p450-cyp2c19 Compounds with AC50 equal or less than 10 uM are considered active; assay type: functional; conditions: read-out: AC50
Chain of Cytochrome P450 2C19 (P33261 whole entry): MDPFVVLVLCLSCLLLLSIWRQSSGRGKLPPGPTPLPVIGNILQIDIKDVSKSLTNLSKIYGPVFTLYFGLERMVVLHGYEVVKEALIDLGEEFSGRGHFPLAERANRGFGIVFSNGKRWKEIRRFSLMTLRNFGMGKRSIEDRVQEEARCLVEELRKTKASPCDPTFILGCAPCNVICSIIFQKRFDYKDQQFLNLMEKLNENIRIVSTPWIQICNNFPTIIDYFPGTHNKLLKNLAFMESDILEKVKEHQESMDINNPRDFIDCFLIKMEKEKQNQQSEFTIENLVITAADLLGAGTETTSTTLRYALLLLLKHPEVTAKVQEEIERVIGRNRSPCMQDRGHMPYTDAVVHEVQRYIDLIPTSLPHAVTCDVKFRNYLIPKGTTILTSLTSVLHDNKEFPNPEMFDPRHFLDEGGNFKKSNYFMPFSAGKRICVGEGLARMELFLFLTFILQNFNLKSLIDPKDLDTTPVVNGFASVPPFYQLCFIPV

[21] = HepG2 cell cytotoxicity, dose response, cytotoxicity control for non-replicating M. tuberculosis project (AID 489018); assay type: functional; conditions: Mycobacterium tuberculosis
cells = assay type: functional
[22] = microbe, parasite or virus in culture; assay type: functional; conditions: Mycobacterium tuberculosis
[23] = THP-1 cell cytotoxicity, dose response, cytotoxicity control for non-replicating M. tuberculosis project (AID 489025); assay type: functional
Vero [24] = experiment: cells; assay type: functional; conditions: Chlorocebus sabaeus

**Q.** What does the source list for `Cc1cc(C(=O)OCC(=O)NCc2ccco2)c(C)n1-c1ccc(F)cc1`?
**A.** EC50 (BJ [1]): 36 µM (active); EC50 (BJ [2]): 9.71 µM (inconclusive); EC50 [3]: 9.52 µM (active); EC50 [4]: > 120 µM (not active); EC50 [5]: 4.93 µM (active); EC50 [6]: 16.7 µM (active); EC50 (BJ [7]): 4.61 µM (active)

**Q.** For `O=S(=O)(c1ccccc1)N1CCC2(CCN(C(c3ccccc3)c3ccccc3)CC2)CC1`, which AC50 (Cytochrome P450 3A4) is on record?
**A.** inconclusive

**Q.** Which AC50 (Cytochrome P450 3A4) does the source give for `CCOC(=O)C1C(=O)C=C(c2ccc(C)cc2)CC1c1ccco1` (configuration not stated) here?
**A.** inconclusive

**Q.** With `CCCCc1c(O)n(-c2ccccc2OC)c(SCC(=O)Nc2cccc3ccccc23)nc1=O` as the compound, how does the IC50 [8] read?
**A.** > 66 µM (inactive)

**Q.** And the EC50 [9]?
**A.** > 180 µM (inactive)

**Q.** And the IC50 [10]?
**A.** > 66 µM (inactive)

**Q.** What about the EC50 [11] of the same compound?
**A.** > 160 µM (inactive)

**Q.** And the EC50 [12]?
**A.** 2.03 µM (active)

**Q.** What about the EC50 [13] of the same compound?
**A.** > 160 µM (inconclusive)

**Q.** Which IC50 [14] does the source give for `O=C(CCCc1ccccc1)N1CCN(c2ccc([N+](=O)[O-])cc2)CC1` here?
**A.** > 47.1 µM (inactive)

**Q.** And the EC50 [15]?
**A.** > 53 µM (inactive)

**Q.** And the AC50 (Cytochrome P450 3A4)?
**A.** inconclusive

**Q.** Which IC50 (Vero [16]) does the source give for `COCCNCC(=O)NC12CC3CC(CC(C3)C1)C2` here?
**A.** 16200 nM (active)

**Q.** What does the source list for `CCOC(=O)c1c(NC(=O)c2c(-c3ccccc3)noc2C)sc(C)c1-c1ccccc1`?
**A.** IC50 (Vero [16]): < 50 nM (active); EC50 [17]: 12.5 µM (active); EC50 [18]: 805 nM (active)

**Q.** Which AC50 (Cytochrome P450 2C9 [19]) does the source give for `COc1ccccc1NC(=O)CN1CCC(C(=O)c2ccc(F)cc2)CC1` here?
**A.** inconclusive

**Q.** What about the AC50 (Cytochrome P450 2D6) of the same compound?
**A.** 25.1 µM (inconclusive)

**Q.** For `CC1CCN(C2=C(NS(=O)(=O)c3ccc(Br)cc3)C(=O)c3ccccc3C2=O)CC1`, which IC50 (Nonstructural protein 1) is on record?
**A.** 10.8 µM (active)

**Q.** Which AC50 (Cytochrome P450 2C9 [20]) does the source give for `Cc1ccc(S(=O)(=O)Oc2ccc(/C=C(/NC(=O)c3ccccc3)C(=O)Nc3ccccc3)cc2)cc1` here?
**A.** 316 nM (inconclusive)

**Q.** And the AC50 (Cytochrome P450 3A4)?
**A.** inconclusive

**Q.** What about the AC50 (Cytochrome P450 2C19) of the same compound?
**A.** 316 nM (inconclusive)

**Q.** For `CC1=NN(C(=O)c2ccc(Br)cc2)C(O)(c2ccccc2)C1` (configuration not stated), which CC50 [21] is on record?
**A.** > 20 µM (active)

**Q.** What about the IC50 (cells) of the same compound?
**A.** 22.4 µM (active)

**Q.** And the CC50 [22]?
**A.** > 40 µM (active)

**Q.** What about the CC50 [23] of the same compound?
**A.** 22.1 µM (active)

**Q.** With `CCCCCCCCCCCCCCCCCC(=O)O[C@H](CC(=O)O)C[N+](C)(C)C` as the compound, how does the AC50 (Cytochrome P450 2C9 [19]) read?
**A.** inconclusive

**Q.** Which EC50 [17] does the source give for `CC1C(=O)C(C)C(c2ccc(Br)cc2)NC1c1ccc(Br)cc1` (configuration not stated) here?
**A.** > 60 µM (not active)

**Q.** What about the EC50 [18] of the same compound?
**A.** 1110 nM (active)

**Q.** What about the CC50 (Vero [24]) of the same compound?
**A.** > 25 µM (active)

**Q.** Which IC50 (Vero [16]) does the source give for `C=CC/N=c1/scc(-c2ccccc2)n1/N=C/c1ccccn1` here?
**A.** 980 nM (active)
